BindingDB's records for doi:10.1021/jm500892k (Shandong University, 2014)
pIC50: −log10 of the molar value.

Assays:
[1] = Inhibition of Influenza A virus A/chicken/shandong/S2/02(H9N2) Neuraminidase
[2] = Inhibition of Influenza A virus A/duck/china/QJ/01(H5N1) Neuraminidase
[3] = Inhibition of Influenza A virus A/duck/china/1206/2012(H5N1) Neuraminidase

Row | Structure (SMILES) | pIC50 [1] | pIC50 [2] | pIC50 [3]
1 | CCC(CC)O[C@@H]1C=C(C(=O)NO)C[C@H](NC(=N)N)[C@H]1NC(C)=O | 6.80 | < 6.70 | < 6.70
2 | CCC(CC)O[C@@H]1C=C(C(=O)NO)C[C@H](N)[C@H]1NC(C)=O | 6.92 | 6.74 | < 6.70
3 | CCC(CC)O[C@@H]1C=C(C(=O)O)C[C@H](N(Cc2cccs2)C(=N)N)[C@H]1NC(C)=O | 6.46 | 6.72 | 7.06
4 | CCC(CC)O[C@@H]1C=C(C(=O)O)C[C@H](N(Cc2ccccc2)C(=N)N)[C@H]1NC(C)=O | – | < 5.52 | 5.52
5 | CCC(CC)O[C@@H]1C=C(C(=O)O)C[C@H](N(Cc2ccc(C(C)C)cc2)C(=N)N)[C@H]1NC(C)=O | 5.67 | 5.49 | 5.81
6 | CCC(CC)O[C@@H]1C=C(C(=O)O)C[C@H](N(Cc2ccccc2OC)C(=N)N)[C@H]1NC(C)=O | 6.44 | – | 6.60
7 | CCC(CC)O[C@@H]1C=C(C(=O)O)C[C@H](N(Cc2ccc(-c3ccccc3)cc2)C(=N)N)[C@H]1NC(C)=O | 6.43 | 6.37 | 6.57
8 | CCCN(C(=N)N)[C@H]1CC(C(=O)O)=C[C@@H](OC(CC)CC)[C@@H]1NC(C)=O | < 5.30 | 5.41 | 5.94
9 | CCC(CC)O[C@@H]1C=C(C(=O)O)C[C@H](N(CC(C)C)C(=N)N)[C@H]1NC(C)=O | < 5.30 | 6.35 | 6.41
10 | CCCCCN(C(=N)N)[C@H]1CC(C(=O)O)=C[C@@H](OC(CC)CC)[C@@H]1NC(C)=O | < 5.30 | < 5.52 | 5.44
11 | CCCCN(C(=N)N)[C@H]1CC(C(=O)O)=C[C@@H](OC(CC)CC)[C@@H]1NC(C)=O | < 5.91 | < 5.52 | < 5.52
12 | CCC(CC)O[C@@H]1C=C(C(=O)O)C[C@H](N(CCC(C)C)C(=N)N)[C@H]1NC(C)=O | 5.31 | < 5.52 | 5.60
13 | CCC(CC)CN(C(=N)N)[C@H]1CC(C(=O)O)=C[C@@H](OC(CC)CC)[C@@H]1NC(C)=O | < 5.30 | < 5.52 | < 5.52
14 | CCC(CC)O[C@@H]1C=C(C(=O)O)C[C@H](N(CCCc2ccccc2)C(=N)N)[C@H]1NC(C)=O | < 5.30 | < 5.52 | 5.75
15 | CCC(CC)CN[C@H]1CC(C(=O)O)=C[C@@H](OC(CC)CC)[C@@H]1NC(C)=O | 7.15 | 6.27 | 7.37
16 | CCCCN[C@H]1CC(C(=O)O)=C[C@@H](OC(CC)CC)[C@@H]1NC(C)=O | 6.20 | 7.12 | 7.25
17 | CCC(CC)O[C@@H]1C=C(C(=O)O)C[C@H](NCC(C)C)[C@H]1NC(C)=O | 5.76 | 7.00 | 7.08

Row | Structure (SMILES) | pIC50 [1] | pIC50 [2] | pIC50 [3]
18 | CCC(CC)O[C@@H]1C=C(C(=O)O)C[C@H](NCc2cccs2)[C@H]1NC(C)=O | 7.00 | 7.27 | 7.28
19 | CCC(CC)O[C@@H]1C=C(C(=O)O)C[C@H](NCc2ccccc2)[C@H]1NC(C)=O | 6.38 | 7.10 | 7.72
20 | CCC(CC)O[C@@H]1C=C(C(=O)O)C[C@H](NCc2ccccc2OC)[C@H]1NC(C)=O | 6.60 | < 5.70 | 6.93
21 | CCC(CC)O[C@@H]1C=C(C(=O)O)C[C@H](NCc2ccccc2O)[C@H]1NC(C)=O | 5.30 | 6.71 | 7.20
22 | CCC(CC)O[C@@H]1C=C(C(=O)O)C[C@H](NCc2ccccc2Cl)[C@H]1NC(C)=O | < 6.37 | 7.54 | 7.85
23 | CCC(CC)O[C@@H]1C=C(C(=O)O)C[C@H](NCc2ccccc2Br)[C@H]1NC(C)=O | 7.38 | 7.25 | 7.42
24 | CCC(CC)O[C@@H]1C=C(C(=O)O)C[C@H](NCc2ccccc2F)[C@H]1NC(C)=O | 6.19 | 6.97 | 7.05
25 | CCC(CC)O[C@@H]1C=C(C(=O)O)C[C@H](NC/C=C/c2ccccc2)[C@H]1NC(C)=O | 5.49 | 6.97 | 7.32
26 | CCC(CC)O[C@@H]1C=C(C(=O)O)C[C@H](NCc2ccc(-c3ccccc3)cc2)[C@H]1NC(C)=O | 6.24 | 8.17 | 8.42
27 | CCC(CC)O[C@@H]1C=C(C(=O)O)C[C@H](NCCCc2ccccc2)[C@H]1NC(C)=O | < 5.30 | 6.72 | 7.09
28 | CCC(CC)O[C@@H]1C=C(C(=O)O)C[C@H](NCCCN)[C@H]1NC(C)=O | 5.98 | < 6.70 | < 6.70
29 | CCC(CC)O[C@@H]1C=C(C(=O)O)C[C@H](NCc2ccccc2OCc2ccco2)[C@H]1NC(C)=O | 6.14 | < 6.70 | < 6.70
30 | C=CCOc1ccccc1CN[C@H]1CC(C(=O)O)=C[C@@H](OC(CC)CC)[C@@H]1NC(C)=O | 5.72 | < 6.70 | < 6.70
31 | CCC(CC)O[C@@H]1C=C(C(=O)O)C[C@H](NCc2ccc(-c3ccccc3)cc2Cl)[C@H]1NC(C)=O | 6.47 | 7.36 | 7.57
32 | CCC(CC)O[C@@H]1C=C(C(=O)O)C[C@H](NCc2ccc(-c3ccccc3)cc2-c2ccccc2)[C@H]1NC(C)=O | 7.42 | 7.24 | 7.41
33 | CCC(CC)O[C@@H]1C=C(C(=O)O)C[C@H](NCc2ccc(-c3cccs3)cc2)[C@H]1NC(C)=O | 6.68 | 7.85 | 8.37
34 | CCC(CC)O[C@@H]1C=C(C(=O)O)C[C@H](NC(=N)N)[C@H]1NC(C)=O [Guanidino-Oseltamivir Carboxylicacid] | 7.96 | 8.59 | 8.64
